Data as given in patent US20110152313A1 (MACQUARIE UNIVERSITY, priority 2008, published 2011).

Experiments:
Experiment in all cases: kinase binding constant, 11-point dose response (T7 phage, qPCR)
Conditions in all cases: >30 = no inhibition at highest concentration tested
RSK1 = biological target: T1, RSK1 (Homo sapiens, UniProt Q15418)
T1 construct: RPS6KA1(Kin.Dom.2-C-terminal)
Procedure: (§1) Kinase inhibition studies were performed by methods well known in the prior art (Fabian, M. A. et al. Nat. Biotechnol. 2005, 23, 329). Briefly, kinase-tagged T7 phage strains were prepared in an E. coli host derived from the BL21 strain. E. coli were grown to log-phase and infected with T7 phage and incubated with shaking at 32° C. until lysis. The lysates were centrifuged and filtered to remove cell debris. […] The liganded beads were blocked with excess biotin and washed with blocking buffer (SeaBlock (Pierce); 1% BSA, 0.05% Tween 20, 1 mM DTT) to remove unbound ligand and to reduce non-specific binding. […] All reactions were performed in polystyrene 96-well plates in a final volume of 0.135 ml. […] The kinase concentration in the eluates was measured by qPCR.
(§2) An 11-point 3-fold serial dilution of each test compound (from 30 μM to 0.5 nM) was prepared in 100% DMSO at 100× final test concentration and subsequently diluted to 1× in the assay (final DMSO concentration=1%). Binding constants (KDS) were calculated with a standard dose-response curve using a 5-point sigmoidal (Hill) equation.

CAMKK2 = CAMKK2 (Homo sapiens, UniProt Q96RR4)
Procedure: as §1, §2

TYK2 = biological target: T2, TYK2 (Homo sapiens, UniProt P29597)
T2 construct: TYK2(JH2domain-pseudokinase)
Procedure: as §1, §2

CDKL5 = biological target: T3, CDKL5 (Homo sapiens, UniProt O76039)
T3 sequence (O76039 1-960): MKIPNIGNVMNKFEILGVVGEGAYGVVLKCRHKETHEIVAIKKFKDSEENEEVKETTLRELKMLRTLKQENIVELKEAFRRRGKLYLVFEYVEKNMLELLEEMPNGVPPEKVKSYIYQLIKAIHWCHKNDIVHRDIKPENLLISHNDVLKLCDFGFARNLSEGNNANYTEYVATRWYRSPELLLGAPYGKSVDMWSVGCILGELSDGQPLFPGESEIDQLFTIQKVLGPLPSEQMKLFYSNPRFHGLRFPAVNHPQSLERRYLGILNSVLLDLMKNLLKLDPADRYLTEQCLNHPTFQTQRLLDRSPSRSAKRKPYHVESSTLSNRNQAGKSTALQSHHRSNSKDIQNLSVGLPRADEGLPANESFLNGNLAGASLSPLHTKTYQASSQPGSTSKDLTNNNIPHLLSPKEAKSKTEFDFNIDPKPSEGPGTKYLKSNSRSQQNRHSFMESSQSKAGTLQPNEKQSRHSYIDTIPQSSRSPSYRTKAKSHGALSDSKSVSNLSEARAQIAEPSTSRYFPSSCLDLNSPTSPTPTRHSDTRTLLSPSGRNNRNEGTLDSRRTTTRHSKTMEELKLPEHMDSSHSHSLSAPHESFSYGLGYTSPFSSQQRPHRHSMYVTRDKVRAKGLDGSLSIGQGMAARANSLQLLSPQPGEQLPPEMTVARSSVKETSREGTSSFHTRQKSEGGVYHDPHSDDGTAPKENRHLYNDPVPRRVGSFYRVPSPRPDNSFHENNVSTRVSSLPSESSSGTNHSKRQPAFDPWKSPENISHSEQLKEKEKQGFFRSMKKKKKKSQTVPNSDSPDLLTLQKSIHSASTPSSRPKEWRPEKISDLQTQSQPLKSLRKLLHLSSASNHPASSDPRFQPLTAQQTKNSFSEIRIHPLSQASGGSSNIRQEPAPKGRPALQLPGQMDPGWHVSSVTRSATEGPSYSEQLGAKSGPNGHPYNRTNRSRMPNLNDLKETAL
Procedure: as §1, §2

PIK4CB = PIK4CB (Homo sapiens, UniProt Q9UBF8)
Procedure: as §1, §2

DYRK2 = biological target: T4, DYRK2 (Homo sapiens, UniProt Q92630)
T4 sequence (Q92630 1-601): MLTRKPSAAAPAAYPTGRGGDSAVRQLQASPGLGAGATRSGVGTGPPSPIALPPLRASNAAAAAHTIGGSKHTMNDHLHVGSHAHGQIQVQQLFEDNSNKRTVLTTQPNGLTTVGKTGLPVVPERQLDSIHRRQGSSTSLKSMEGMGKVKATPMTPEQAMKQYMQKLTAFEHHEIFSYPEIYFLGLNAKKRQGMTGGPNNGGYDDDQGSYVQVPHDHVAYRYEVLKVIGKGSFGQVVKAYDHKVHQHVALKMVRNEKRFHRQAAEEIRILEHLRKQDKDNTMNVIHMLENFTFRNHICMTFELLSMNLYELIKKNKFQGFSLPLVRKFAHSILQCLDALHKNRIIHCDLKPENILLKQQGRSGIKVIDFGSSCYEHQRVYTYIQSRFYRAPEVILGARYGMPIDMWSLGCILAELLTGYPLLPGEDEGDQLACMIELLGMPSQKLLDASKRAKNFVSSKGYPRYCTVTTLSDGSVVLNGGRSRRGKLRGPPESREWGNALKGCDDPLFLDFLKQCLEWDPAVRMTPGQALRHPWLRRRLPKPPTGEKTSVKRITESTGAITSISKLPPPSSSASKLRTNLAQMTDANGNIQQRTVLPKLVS
Procedure: as §1, §2

T1 sequence (Q15418 whole entry): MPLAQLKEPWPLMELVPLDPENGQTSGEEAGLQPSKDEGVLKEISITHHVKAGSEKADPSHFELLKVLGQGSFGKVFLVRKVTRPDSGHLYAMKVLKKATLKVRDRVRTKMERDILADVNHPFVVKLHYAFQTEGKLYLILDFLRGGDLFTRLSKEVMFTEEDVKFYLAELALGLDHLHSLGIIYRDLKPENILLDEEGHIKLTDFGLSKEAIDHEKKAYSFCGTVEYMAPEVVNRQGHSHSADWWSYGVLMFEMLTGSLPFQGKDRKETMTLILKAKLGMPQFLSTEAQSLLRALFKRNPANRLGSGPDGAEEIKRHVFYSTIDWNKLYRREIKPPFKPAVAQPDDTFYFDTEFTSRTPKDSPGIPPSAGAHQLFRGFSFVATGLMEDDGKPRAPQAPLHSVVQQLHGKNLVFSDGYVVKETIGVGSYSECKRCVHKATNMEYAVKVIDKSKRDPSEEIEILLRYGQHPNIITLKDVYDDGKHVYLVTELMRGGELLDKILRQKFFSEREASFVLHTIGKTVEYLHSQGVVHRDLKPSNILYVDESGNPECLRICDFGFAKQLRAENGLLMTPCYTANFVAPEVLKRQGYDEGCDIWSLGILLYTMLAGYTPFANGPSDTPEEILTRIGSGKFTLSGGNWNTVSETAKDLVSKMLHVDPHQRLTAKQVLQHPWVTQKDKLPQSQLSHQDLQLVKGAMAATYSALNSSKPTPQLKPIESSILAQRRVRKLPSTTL
PIK4CB, sequence (Q9UBF8 whole entry, species assumed): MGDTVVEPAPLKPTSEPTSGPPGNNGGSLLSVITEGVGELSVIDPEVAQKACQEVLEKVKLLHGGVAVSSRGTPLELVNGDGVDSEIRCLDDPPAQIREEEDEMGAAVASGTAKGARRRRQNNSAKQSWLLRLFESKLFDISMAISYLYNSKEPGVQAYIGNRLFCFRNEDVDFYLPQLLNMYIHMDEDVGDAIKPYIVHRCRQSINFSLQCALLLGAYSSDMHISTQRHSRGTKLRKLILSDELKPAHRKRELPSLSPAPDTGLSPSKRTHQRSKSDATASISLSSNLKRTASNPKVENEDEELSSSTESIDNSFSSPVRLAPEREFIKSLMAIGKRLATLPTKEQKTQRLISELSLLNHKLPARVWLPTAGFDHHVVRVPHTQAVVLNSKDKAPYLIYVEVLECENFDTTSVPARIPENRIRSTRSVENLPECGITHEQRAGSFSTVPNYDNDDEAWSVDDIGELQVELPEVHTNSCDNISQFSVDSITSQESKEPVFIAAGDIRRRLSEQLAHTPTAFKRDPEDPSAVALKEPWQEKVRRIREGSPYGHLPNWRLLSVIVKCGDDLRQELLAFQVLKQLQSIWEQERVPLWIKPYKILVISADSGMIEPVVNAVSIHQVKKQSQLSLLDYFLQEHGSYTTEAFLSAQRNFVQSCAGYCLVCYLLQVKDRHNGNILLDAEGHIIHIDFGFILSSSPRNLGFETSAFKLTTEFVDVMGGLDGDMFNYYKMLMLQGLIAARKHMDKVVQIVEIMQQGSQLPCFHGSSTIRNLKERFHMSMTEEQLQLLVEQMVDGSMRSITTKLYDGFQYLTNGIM
T2 sequence (P29597 whole entry): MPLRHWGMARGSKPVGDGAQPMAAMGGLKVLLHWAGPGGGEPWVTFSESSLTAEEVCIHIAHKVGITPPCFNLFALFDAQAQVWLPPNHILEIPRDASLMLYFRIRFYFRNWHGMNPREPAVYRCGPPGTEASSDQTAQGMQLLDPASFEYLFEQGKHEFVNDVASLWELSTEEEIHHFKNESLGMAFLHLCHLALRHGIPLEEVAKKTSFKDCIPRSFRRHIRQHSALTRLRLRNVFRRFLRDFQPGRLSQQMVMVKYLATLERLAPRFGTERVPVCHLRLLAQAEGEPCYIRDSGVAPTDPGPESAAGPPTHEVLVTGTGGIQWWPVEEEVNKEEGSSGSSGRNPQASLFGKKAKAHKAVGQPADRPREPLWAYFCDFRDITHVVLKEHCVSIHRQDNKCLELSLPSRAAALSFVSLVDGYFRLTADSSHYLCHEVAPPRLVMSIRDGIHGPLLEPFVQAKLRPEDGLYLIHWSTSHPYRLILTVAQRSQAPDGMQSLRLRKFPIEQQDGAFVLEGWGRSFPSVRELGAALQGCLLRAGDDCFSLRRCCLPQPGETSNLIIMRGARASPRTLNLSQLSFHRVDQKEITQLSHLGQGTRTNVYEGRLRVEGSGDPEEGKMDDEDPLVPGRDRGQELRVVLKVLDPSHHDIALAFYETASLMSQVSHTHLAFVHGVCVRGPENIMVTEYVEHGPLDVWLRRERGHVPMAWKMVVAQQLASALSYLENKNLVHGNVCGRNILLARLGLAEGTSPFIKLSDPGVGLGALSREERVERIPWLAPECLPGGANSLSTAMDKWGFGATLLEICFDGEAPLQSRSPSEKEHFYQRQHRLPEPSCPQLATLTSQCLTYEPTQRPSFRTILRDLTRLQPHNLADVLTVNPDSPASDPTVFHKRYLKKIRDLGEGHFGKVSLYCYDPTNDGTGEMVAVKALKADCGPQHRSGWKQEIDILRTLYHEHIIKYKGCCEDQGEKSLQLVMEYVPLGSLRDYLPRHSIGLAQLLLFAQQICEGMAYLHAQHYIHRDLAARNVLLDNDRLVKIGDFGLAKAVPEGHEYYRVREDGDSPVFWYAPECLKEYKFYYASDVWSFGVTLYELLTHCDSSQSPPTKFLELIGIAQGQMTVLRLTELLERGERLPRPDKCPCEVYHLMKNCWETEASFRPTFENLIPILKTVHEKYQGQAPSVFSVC
CAMKK2, sequence (Q96RR4 whole entry): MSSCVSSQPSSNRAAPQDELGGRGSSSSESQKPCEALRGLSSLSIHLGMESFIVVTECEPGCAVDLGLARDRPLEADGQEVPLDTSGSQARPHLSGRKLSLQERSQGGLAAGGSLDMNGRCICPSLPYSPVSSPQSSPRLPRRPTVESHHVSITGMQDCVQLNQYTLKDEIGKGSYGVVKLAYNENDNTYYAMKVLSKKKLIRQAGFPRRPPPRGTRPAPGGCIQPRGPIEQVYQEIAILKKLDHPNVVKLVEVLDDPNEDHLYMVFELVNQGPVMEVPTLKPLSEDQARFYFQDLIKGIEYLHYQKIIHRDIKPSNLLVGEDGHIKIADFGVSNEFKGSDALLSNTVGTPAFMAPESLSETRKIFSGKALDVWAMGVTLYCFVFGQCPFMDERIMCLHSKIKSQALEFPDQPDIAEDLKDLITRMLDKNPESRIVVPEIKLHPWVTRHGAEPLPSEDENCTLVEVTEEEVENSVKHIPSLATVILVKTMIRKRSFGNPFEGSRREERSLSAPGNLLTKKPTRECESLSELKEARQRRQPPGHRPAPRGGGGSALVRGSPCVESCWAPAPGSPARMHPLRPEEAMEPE

Row | SMILES | Kd (RSK1) [µM] | Kd (CAMKK2) [µM] | Kd (TYK2) [µM] | Kd (CDKL5) [µM] | Kd (PIK4CB) [µM] | Kd (DYRK2) [µM]
1 | Nc1nc2c(-c3ccccn3)nccc2[nH]1 [drawing 35, 4-(pyrid-2-yl)-1H-imidazo[4,5-c]pyridin-2-amine] | 0.53 | > 30 |  |  |  | 
2 | Nc1nc2c(-c3cnc4ccccc4c3)nccc2[nH]1 [drawing 36, 4-(quinolin-3-yl)-1H-imidazo[4,5-c]pyridin-2-amine] |  |  | 0.29 | > 30 | 0.35 | 0.97
